Experimental data reported in publication PMC5656713 (Advances in Therapy, 2017).
Where two headings read alike, the source gives them in different places.

Legend:
[1] = male, human, in vivo
[2] = clinical; conditions: male, human, in vivo
[3] = tested on: serum cortisol; assay: Fasting serum cortisol during mifepristone alone and plus ketoconazole; format: in vivo, human; conditions: day 13, predose, after mifepristone 600 mg alone
[4] = tested on: plasma ACTH; assay: Fasting plasma ACTH during mifepristone alone and plus ketoconazole; format: in vivo, human; conditions: day 13, predose, after mifepristone 600 mg alone
[5] = Safety and tolerability; format: in vivo, human
[6] = with concomitant ketoconazole 200 mg twice daily vs mifepristone 600 mg alone
[7] = tested on: glucocorticoid receptor; conditions: cited from earlier work
[8] = cited from earlier work
[9] = clinical; conditions: male, human, in vivo, 600 mg

Row | Structure (SMILES) | Mean predose trough concentrations [1] [ng/mL] | Tmax ([2]; 200 mg) [h] | AUC(0-t) ([2]; AUC (AUC0–12) GLSM) [ng·h/mL] | Mean serum cortisol [3] [µg/dL] | Mean ACTH [4] [pg/mL] | subjects with at least one treatment-emergent AE ([5]; coadministration of mifepristone and ketoconazole (period 2), 8/14) [%] | subjects with at least one treatment-emergent AE ([5]; mifepristone alone (period 1), 9/16) [%] | serious AEs ([5]; whole study, mifepristone alone and plus ketoconazole) | increase in systemic exposure based on GMR, AUC0–24 [6] [%] | affinity to the glucocorticoid receptor compared with 100% for mifepristone [7] [%] | half-life [8] | half-life [9] [h]
1 | CC(=O)N1CCN(c2ccc(OCC3COC(Cn4ccnc4)(c4ccc(Cl)cc4Cl)O3)cc2)CC1 (stereo not drawn) [Ketoconazole] | 1353.07 to 1615.64 | 3 | 37700 |  |  |  |  |  |  |  |  | 
2 | CC#C[C@]1(O)CC[C@H]2[C@@H]3CCC4=CC(=O)CCC4=C3[C@@H](c3ccc(N(C)C)cc3)C[C@@]21C [Mifepristone] |  |  |  | 41.9 | 148 | 57.1 | 56.3 | No serious AEs | 38 | 100 | ~ 85 h | > 64
